# Measurements: patent publication US12552780B2, “Small molecule compound serving as jak kinase inhibitor, and use thereof” (TECHNODERMA MEDICINES, INC., priority 2020, dated 2026)
# Read-outs that look alike come from different tables or passages of the source.
# Tests used:
# Assay type in all cases: biochemical
# [1] = target: Tyk2 (Homo sapiens, UniProt P29597); experiment: Detection of enzyme activity inhibition of JAK kinases (ULight-JAK substrate, Eu-antibody), Tyk2; settings: ATP 10 μM, substrate 50 nM, 1 hour reaction at room temperature, read-out: Tyk2 half-maximum inhibitory concentration (IC50)
# Tyk2, sequence (P29597 whole entry): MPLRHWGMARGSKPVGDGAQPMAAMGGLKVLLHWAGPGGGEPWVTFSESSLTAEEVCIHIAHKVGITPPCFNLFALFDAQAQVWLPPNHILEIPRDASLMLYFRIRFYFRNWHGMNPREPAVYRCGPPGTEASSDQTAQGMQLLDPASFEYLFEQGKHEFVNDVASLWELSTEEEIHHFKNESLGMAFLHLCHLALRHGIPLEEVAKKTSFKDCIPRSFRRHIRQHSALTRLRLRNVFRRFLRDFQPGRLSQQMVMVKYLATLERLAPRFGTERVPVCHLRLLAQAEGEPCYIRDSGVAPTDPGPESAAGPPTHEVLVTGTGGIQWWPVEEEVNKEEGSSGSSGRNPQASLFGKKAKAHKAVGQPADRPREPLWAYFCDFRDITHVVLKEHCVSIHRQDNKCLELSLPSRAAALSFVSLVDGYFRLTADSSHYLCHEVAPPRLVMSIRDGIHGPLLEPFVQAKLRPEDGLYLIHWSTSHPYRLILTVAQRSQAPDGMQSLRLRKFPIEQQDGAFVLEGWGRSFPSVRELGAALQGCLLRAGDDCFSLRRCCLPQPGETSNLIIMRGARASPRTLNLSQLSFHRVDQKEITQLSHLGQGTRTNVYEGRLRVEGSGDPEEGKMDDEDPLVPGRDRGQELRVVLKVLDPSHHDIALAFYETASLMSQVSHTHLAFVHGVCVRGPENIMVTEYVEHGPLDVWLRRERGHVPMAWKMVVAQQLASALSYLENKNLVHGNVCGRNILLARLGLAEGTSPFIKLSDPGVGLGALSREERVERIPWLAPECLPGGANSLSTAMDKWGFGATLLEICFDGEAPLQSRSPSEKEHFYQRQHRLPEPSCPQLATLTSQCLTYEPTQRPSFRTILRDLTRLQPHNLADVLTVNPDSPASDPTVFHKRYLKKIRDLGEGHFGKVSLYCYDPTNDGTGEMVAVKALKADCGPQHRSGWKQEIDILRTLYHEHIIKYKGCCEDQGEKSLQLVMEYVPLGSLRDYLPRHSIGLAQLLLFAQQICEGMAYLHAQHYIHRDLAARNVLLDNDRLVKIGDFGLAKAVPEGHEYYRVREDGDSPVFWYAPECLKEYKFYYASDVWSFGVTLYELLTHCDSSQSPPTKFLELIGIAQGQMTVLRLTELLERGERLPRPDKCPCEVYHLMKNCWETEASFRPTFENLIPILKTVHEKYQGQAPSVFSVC
# Protocol: (§1) Kinase reaction buffer: The kinase reaction buffer was prepared with the following components: 50 mM HEPES, pH 7.5, 1 mM EGTA, 10 mM MgCl2, 2 mM DTT, and 0.01% Tween20. 1× test buffer: A test buffer was prepared, and the 10× test buffer was diluted with deionized water (deionized water: test buffer=9:1) to obtain the 1× test buffer. 4× kinase solution: JAK kinase was diluted with a kinase reaction buffer to a final concentration of 4× (JAK1:80 nM, JAK2/JAK3/Tyk2:4 nM). 4× substrate solution: ULight™-JAK (Tyr1023) substrate was diluted with the kinase reaction buffer to 200 nM (final concentration: 50 nM). 4× ATP solution: ATP was diluted with the kinase reaction buffer to a final concentration of 4× (JAK1:160 μM, JAK2/JAK3/Tyk2: 40 μM). 4× test compound solution: The compounds to be tested were dissolved in DMSO to prepare 10 mM stock solutions, which were diluted to have the desired concentrations through 3-fold gradient dilution, 10 concentrations were set for each compound, and final concentrations of the test compounds ranged from 10 μM to 0.5 nM. 4× enzyme reaction termination solution: EDTA was dissolved in a 1× test buffer to 40 mM (final concentration of EDTA: 10 mM). 4× test antibody solution: Eu-labeled test antibodies (anti-phosphotyrosine (PT66)) were diluted with 1× test buffer to 8 nM (final concentration of the antibodies: 2 nM). 2.5 μL of the 4× kinase solution and 2.5 μL of each of the 4× test compound solutions having different concentrations were added into a 384-well microwell plate sequentially, with 2 duplicate wells set for each concentration, and an enzyme solution blank control group and a negative control group (DMSO group) were also provided. The 384-well plate was oscillated to mix the enzyme and the compound uniformly, centrifuged at 1000 rpm for 1 minute, and incubated at room temperature for 60 minutes. 2.5 μL of the 4× substrate solution was added into the 384-well plate, and centrifuged at 1000 rpm for 1 minute. 2.5 μL of the 4× ATP solution was added into the 384-well plate, and centrifuged at 1000 rpm for 1 minute to start the enzyme reaction. JAK1 reacted at room temperature for 2 hours, and JAK2/JAK3/Tyk2 reacted at room temperature for 1 hour. The final concentration of each component in the JAK1 reaction was: JAK1:20 nM; substrate: 50 nM; and ATP: 40 μM. The final concentrations of the test compounds ranged from 10 μM to 0.5 nM. The final concentration of each component in the JAK2/JAK3/Tyk2 reaction was: JAK2:1 nM; substrate: 50 nM; and ATP: 10 μM. The final concentrations of the test compounds ranged from 10 μM to 0.5 nM. After the enzyme reaction ended, 5 μL of the 4× enzyme reaction termination solution was added into each well of the 384-well plate, centrifuged at 1000 rpm for 1 minute, and incubated at room temperature for 5 minutes. 5 μL of the 4× test antibody solution (final concentration of the test antibodies was 2 nM) was added into each well of the 384-well plate, centrifuged at 1000 rpm for 1 minute, and incubated at room temperature for 1 hour. After incubation of the antibodies, a signal value of each well was measured with Envision plate reader. Assuming that an inhibition rate of the enzyme solution blank control group was 100% and an inhibition rate of the negative control group (DMSO group) was 0%, an inhibition rate corresponding to each concentration was calculated. Nonlinear regression analysis was performed on the concentration logarithm values and corresponding percentage inhibition rates of the test compounds in GraphPad Prism software to obtain the half-maximum inhibitory concentrations (IC50) of the test compounds.
# [2] = target: JAK2 (Homo sapiens, UniProt O60674); experiment: Detection of enzyme activity inhibition of JAK kinases (ULight-JAK substrate, Eu-antibody), JAK2; settings: JAK2 1 nM, ATP 10 μM, substrate 50 nM, 1 hour reaction at room temperature, read-out: JAK2 half-maximum inhibitory concentration (IC50)
# JAK2, sequence (O60674 whole entry): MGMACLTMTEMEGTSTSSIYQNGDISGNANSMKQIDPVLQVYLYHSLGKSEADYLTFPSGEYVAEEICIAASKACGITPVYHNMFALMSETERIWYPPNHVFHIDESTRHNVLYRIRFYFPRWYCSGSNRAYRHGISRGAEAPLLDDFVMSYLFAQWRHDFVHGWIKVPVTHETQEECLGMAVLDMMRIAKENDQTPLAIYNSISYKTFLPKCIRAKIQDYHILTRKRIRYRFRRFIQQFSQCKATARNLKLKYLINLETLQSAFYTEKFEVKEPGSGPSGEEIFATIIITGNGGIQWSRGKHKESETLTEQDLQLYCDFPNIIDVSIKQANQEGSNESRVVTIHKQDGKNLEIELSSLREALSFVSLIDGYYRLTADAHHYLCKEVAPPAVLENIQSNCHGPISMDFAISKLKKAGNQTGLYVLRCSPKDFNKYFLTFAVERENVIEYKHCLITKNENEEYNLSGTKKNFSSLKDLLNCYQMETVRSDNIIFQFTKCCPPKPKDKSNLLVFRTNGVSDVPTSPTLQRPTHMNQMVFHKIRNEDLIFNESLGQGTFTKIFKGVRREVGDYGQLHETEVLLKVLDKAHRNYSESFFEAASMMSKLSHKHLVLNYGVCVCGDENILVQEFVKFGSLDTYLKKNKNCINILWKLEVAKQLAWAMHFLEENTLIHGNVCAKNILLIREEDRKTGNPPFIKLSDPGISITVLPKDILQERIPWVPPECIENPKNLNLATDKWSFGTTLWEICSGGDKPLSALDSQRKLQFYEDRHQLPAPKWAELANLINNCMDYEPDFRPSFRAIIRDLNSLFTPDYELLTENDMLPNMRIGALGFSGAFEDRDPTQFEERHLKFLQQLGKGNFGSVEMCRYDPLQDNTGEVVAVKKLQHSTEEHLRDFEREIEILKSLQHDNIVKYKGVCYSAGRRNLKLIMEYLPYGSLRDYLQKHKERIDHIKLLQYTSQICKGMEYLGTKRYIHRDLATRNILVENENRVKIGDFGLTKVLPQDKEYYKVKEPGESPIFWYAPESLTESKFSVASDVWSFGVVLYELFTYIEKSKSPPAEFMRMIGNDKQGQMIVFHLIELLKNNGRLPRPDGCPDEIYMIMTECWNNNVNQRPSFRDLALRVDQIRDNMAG
# Protocol: as §1
# [3] = target: T1, JAK3 (Homo sapiens, UniProt P52333); experiment: Detection of enzyme activity inhibition of JAK kinases (ULight-JAK substrate, Eu-antibody), JAK3; settings: ATP 10 μM, substrate 50 nM, 1 hour reaction at room temperature; read-out: JAK3 half-maximum inhibitory concentration (IC50)
# T1 sequence (P52333 1-1124): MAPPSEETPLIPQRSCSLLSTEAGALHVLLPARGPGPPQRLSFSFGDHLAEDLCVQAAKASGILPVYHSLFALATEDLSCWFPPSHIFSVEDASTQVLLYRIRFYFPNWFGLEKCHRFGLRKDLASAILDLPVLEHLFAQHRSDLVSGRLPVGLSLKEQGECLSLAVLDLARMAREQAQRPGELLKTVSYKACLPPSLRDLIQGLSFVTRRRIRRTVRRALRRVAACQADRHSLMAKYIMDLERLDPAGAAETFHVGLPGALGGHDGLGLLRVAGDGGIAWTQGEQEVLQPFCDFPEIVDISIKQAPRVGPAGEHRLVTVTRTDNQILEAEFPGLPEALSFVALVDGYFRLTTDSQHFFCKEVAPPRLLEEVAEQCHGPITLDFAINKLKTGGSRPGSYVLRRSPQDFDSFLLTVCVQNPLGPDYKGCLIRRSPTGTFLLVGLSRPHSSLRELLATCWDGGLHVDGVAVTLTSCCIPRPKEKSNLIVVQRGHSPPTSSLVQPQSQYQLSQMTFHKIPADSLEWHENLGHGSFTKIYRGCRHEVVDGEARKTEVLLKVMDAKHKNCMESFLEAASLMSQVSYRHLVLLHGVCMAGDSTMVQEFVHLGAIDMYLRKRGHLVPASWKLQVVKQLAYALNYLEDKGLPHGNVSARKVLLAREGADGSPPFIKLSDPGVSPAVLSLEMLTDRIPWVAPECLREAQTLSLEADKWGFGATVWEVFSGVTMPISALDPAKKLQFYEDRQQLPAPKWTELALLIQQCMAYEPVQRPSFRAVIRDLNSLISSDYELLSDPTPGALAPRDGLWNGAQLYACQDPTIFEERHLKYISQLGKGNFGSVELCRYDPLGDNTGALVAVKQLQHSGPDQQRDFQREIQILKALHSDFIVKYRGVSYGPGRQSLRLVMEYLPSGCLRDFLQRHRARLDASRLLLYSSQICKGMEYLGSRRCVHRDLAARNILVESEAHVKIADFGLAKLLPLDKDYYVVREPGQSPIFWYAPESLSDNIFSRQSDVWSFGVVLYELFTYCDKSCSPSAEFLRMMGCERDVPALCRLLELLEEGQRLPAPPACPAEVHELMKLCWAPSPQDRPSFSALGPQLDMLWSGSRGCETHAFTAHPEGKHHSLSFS
# Protocol: as §1
# [4] = target: JAK1 (Homo sapiens, UniProt P23458); experiment: Detection of enzyme activity inhibition of JAK kinases (ULight-JAK substrate, Eu-antibody), JAK1; settings: JAK1 20 nM, ATP 40 μM, substrate 50 nM, 2 hours reaction at room temperature, read-out: JAK1 half-maximum inhibitory concentration (IC50)
# JAK1, sequence (P23458 whole entry): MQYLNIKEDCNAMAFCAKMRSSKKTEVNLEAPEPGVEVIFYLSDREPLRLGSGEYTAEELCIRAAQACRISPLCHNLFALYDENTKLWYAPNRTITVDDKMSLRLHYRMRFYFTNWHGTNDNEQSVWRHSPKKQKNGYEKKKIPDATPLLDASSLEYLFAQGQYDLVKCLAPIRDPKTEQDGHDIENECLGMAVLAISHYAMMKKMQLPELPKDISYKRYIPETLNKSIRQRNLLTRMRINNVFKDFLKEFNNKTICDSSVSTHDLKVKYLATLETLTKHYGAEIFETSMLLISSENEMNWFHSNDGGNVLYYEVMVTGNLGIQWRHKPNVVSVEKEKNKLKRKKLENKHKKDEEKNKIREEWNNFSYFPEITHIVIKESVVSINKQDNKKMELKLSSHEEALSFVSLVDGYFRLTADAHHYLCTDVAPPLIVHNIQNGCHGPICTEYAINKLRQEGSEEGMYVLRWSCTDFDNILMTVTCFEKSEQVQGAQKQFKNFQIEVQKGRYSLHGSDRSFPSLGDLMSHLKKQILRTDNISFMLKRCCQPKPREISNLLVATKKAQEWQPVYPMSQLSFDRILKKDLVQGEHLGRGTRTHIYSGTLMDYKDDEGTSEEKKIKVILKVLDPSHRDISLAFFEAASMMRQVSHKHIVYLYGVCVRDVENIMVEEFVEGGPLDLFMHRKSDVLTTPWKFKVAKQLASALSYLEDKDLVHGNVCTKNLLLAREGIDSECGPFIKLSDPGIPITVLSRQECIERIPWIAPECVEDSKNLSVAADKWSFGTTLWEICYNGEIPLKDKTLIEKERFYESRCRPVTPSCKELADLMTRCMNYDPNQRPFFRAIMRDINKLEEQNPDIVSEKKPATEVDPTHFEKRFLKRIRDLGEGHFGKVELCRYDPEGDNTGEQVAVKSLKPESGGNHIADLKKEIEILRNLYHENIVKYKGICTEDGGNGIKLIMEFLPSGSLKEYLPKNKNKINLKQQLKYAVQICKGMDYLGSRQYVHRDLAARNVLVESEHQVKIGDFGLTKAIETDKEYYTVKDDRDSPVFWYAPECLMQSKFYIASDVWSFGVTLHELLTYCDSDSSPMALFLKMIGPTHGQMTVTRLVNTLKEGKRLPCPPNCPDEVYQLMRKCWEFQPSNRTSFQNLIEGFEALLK
# Protocol: as §1
Compound,IC50 [1] [nM],IC50 [2] [nM],IC50 [3] [nM],IC50 [4] [nM],IC50 ([4]; listed as TDM-18097) [nM],IC50 ([1]; listed as TDM-18097) [nM],IC50 ([2]; listed as TDM-18097) [nM]
"CNC(=O)c1ncc(Nc2nccc(-c3cnn(C4(CC#N)CN(C(=O)[C@@H]5CC5(F)F)C4)c3)n2)cc1C [TDM-180985, (S)-5-((4-(1-(3-(cyanomethyl)-1-(2,2-difluorocyclopropane-1-carbonyl)azetidin-3-yl)-1H-pyrazol-4-yl)pyrimidin-2-yl)amino)-N,3-dimethylpyridinecarboxamide]",21,64,2370,54,–,–,–
"Cc1cc(Nc2nccc(-c3cnn(C4(CC#N)CN(C(=O)[C@@H]5CC5(F)F)C4)c3)n2)cnc1C(N)=O [TDM-180986, (S)-5-((4-(1-(3-(cyanomethyl)-1-(2,2-difluorocyclopropane-1-carbonyl)azetidin-3-yl)-1H-pyrazol-4-yl)pyrimidin2-yl)amino)-3-methylpyridinolineamide]",56,52,3060,125,–,–,–
"CC(CO)c1ccc(Nc2nccc(-c3cnn(C4(CC#N)CN(C(=O)[C@@H]5CC5(F)F)C4)c3)n2)cn1 (stereo partly drawn) [TDM-180990, 2-(1-((S)-2,2-difluorocyclopropane-1-carbonyl)-3-(4-(2-((6-(1-hydroxypropan-2-yl)pyridine-3-yl)amino)pyrimidin-4-yl)-1H-pyrazol-1-yl)azetidin-3-yl)acetonitrile]",112,–,–,224,–,–,–
"CC(CO)c1ccc(Nc2nccc(-c3ccn(C4(CC#N)CN(C(=O)[C@@H]5CC5(F)F)C4)c3)n2)cn1 (stereo partly drawn) [TDM-180996, 2-(1-((S)-2,2-difluorocyclopropane-1-carbonyl)-3-(3-(2-((6-(1-hydroxypropan-2-yl)pyridine-3-yl)amino)pyrimidin-4-yl)-1H-pyrrol-1-yl)azetidin-3-yl) acetonitrile]",39,38,843,55,–,–,–

# The next compounds have a lower IC50 [1] than those just listed; values first:
IC50 [1] [nM],IC50 [2] [nM],IC50 [3] [nM],IC50 [4] [nM],IC50 ([4]; listed as TDM-18097) [nM],IC50 ([1]; listed as TDM-18097) [nM],IC50 ([2]; listed as TDM-18097) [nM],Compound
19,22,1300,18,–,–,–,"CCNC(=O)c1ccc(Nc2nccc(-c3cnn(C4(CC#N)CN(C(=O)[C@@H]5CC5(F)F)C4)c3)n2)cc1 [TDM-180982, (S)-4-((4-(1-(3-(cyanomethyl)-1-(2,2-difluorocyclopropane-1-carbony)azetidn-3-yl)-1H-pyrazol-4-yl)pyrimidin-2-yl)amino)-N-ethylbenzamide]"
17,27,791,45,–,–,–,CCNC(=O)c1ccc(Nc2nccc(-c3cnn(C4(CC#N)CN(C(=O)[C@@H]5CC5(F)F)C4)c3)n2)cc1C [TDM-180983]
11,12,280,7,~10,~10,~10,"(S)-4-((4-(1-(3-(cyanomethyl)-1-(2,2-difluorocyclopropane-1-carbonyl)azetidin-3-yl)-1H-pyrrol-3-yi)pyrimidin-2-yl)amino)-N-ethyl-2-methylbenzamide [TDM-180978]"
9,13,599,9,–,–,–,"CNC(=O)c1ncc(Nc2nccc(-c3ccn(C4(CC#N)CN(C(=O)[C@@H]5CC5(F)F)C4)c3)n2)cc1C [TDM-180976, (S)-5-((4-(1-(3-(cyanomethyl)-1-(2,2-difluorocyclopropane-1-carbonyl)azetidin-3-yl)-1H-pyrrol-3-yl)pyrimidin-2-yl)amino)-N,3-dimethylpyridinecarboxamide]"
8,7,674,12,–,–,–,"Cc1cc(Nc2nccc(-c3ccn(C4(CC#N)CN(C(=O)[C@@H]5CC5(F)F)C4)c3)n2)cnc1C(N)=O [TDM-180975, (S)-5-((4-(1-(3-(cyanomethyl)-1-(2,2-difluorocyclopropane-1-carbonyl)azetidin-3-yl)-1H-pyrrol-3-yl)pyrimidin-2-yl)amino)-3-methylpyridinolineamide]"
7,9,443,–,–,–,–,"CCNC(=O)c1ccc(Nc2nccc(-c3ccn(C4(CC#N)CN(C(=O)[C@@H]5CC5(F)F)C4)c3)n2)cc1 [TDM-180973, (S)-4-((4-(1-(3-(cyanomethyl)-1-(2,2-difluorocyclopropane-1-carbonyl)azetidin-3-yl)-1H-pyrrol-3-yl)pyrimidin-2-yl)amino)-N-ethylbenzamide]"
